In publication PMC9000719, “Design, Synthesis and Bioactivity Evaluation of Coumarin–BMT Hybrids as New Acetylcholinesterase Inhibitors” (Molecules, 2022):
Values joined by “and” are separate entries in the source; they are usually repeats but may differ in a detail not shown here. Equal entries are not always repeated. “Also recorded” adds a separate entry of the source. Marks after values point to notes of the source that are not given here.

Key:
Type in all cases: biochemical
[1] = molecular target: T1, Acetylcholinesterase (AChE, E.C. 3.1.1.7, from electric eel) (Electrophorus electricus, UniProt O42275); assay: Crude screening on AChE inhibition (Ellman method); conditions: 2 μM compounds; means ± SEM of at least three independent experiments; normalized as percentage of control
T1 construct: purchased Sigma Aldrich

[2] = molecular target: T2, AChE (Electrophorus electricus); assay: biochemical; conditions: inhibition constant against AChE; substrate ATCI at two concentrations
T2 construct: purchased Sigma Aldrich
Experimental: (§1) Kinetic characterization was performed using Dixon’s method. […] Assay medium contained DTNB solution 15 mM (40 µL), AChE solution 10 units/mL (50 µL), substrate solutions (10 µL) and various concentrations of tested compounds (20 µL). […] Results were computed and presented on the Lineweaver–Burk plot to determine the Ki value and to distinguish the type of enzyme inhibition.

[3] = system: T3, human AChE (Electrophorus electricus); assay: biochemical; conditions: Lineweaver–Burk plots
T3 construct: purchased Sigma Aldrich
Experimental: as §1

T1 sequence (O42275 24-633): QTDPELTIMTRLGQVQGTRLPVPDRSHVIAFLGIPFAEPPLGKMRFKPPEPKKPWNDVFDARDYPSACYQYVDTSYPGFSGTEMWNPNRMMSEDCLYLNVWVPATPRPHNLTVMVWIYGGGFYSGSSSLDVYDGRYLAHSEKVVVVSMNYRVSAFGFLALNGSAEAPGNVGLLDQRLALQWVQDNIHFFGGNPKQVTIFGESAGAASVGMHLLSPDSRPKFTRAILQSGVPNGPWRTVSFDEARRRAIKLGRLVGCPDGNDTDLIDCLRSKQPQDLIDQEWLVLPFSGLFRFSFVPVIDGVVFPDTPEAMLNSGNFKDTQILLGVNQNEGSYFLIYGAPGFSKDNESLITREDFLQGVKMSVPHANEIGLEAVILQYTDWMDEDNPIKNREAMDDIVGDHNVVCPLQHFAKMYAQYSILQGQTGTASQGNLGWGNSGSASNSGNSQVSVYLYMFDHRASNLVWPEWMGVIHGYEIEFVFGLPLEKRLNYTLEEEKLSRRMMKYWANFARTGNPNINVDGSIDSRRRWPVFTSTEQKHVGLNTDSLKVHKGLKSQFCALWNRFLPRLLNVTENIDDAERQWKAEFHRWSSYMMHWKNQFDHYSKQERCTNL
T2 sequence (O42275 24-633): as above
T3 sequence (O42275 24-633): as above

Molecule: COc1ccc2oc(=O)c(C(=O)NCCCCCCCNc3c4c(nc5ccccc35)C3(C)CCC4C3(C)C)cc2c1 (centres unmarked) [Compound 9e, 6-methoxy-2-oxo-N-(7-((4,11,11-trimethyl-1,2,3,4-tetrahydro-1,4-methanoacridin-9-yl)amino)heptyl)-2H-chromene-3-carboxamide]
- Inhibition Ratio (%) [1]: 62.15 ± 3.14 ^ef %

Molecule: CC12CCC(c3c1nc1ccccc1c3NCCCCCNC(=O)c1cc3cc(Br)ccc3oc1=O)C2(C)C (centres unmarked) [Compound 7c, 6-bromo-2-oxo-N-(5-((4,11,11-trimethyl-1,2,3,4-tetrahydro-1,4-methanoacridin-9-yl)amino)pentyl)-2H-chromene-3-carboxamide]
- Inhibition Ratio (%) [1]: 50.72 ± 2.98 ^h %

Molecule: COc1ccc2oc(=O)c(C(=O)NCCCCCCNc3c4c(nc5ccccc35)C3(C)CCC4C3(C)C)cc2c1 (centres unmarked) [Compound 8e, 6-methoxy-2-oxo-N-(6-((4,11,11-trimethyl-1,2,3,4-tetrahydro-1,4-methanoacridin-9-yl)amino)hexyl)-2H-chromene-3-carboxamide]
- Ki [2]: 50.8 nM
- type of enzyme inhibition [3]: mixed-type inhibition; also recorded: mixed-type inhibitor
- Inhibition Ratio (%) [1]: 87.48% and 87.48 ± 0.27 ^b %

Molecule: 7-bromo-2-oxo-N-(6-((4,11,11-trimethyl-1,2,3,4-tetrahydro-1,4-methanoacridin-9-yl)amino)hexyl)-2H-chromene-3-carboxamide [Compound 8c]
- Inhibition Ratio (%) [1]: 57.58 ± 3.30 ^fg %

Molecule: CC12CCC(c3c1nc1ccccc1c3NCCCCCCNC(=O)c1cc3ccccc3oc1=O)C2(C)C (centres unmarked) [Compound 8a, 2-oxo-N-(6-((4,11,11-trimethyl-1,2,3,4-tetrahydro-1,4-methanoacridin-9-yl)amino)hexyl)-2H-chromene-3-carboxamide]
- Inhibition Ratio (%) [1]: 66.57 ± 1.09 ^de %

Molecule: Cc1ccc2oc(=O)c(C(=O)NCCCCCCNc3c4c(nc5ccccc35)C3(C)CCC4C3(C)C)cc2c1 (centres unmarked) [Compound 8b]
- Ki [2]: 49.2 nM
- type of enzyme inhibition [3]: mixed-type inhibition; also recorded: mixed-type inhibitor
- Inhibition Ratio (%) [1]: 86.60% and 86.60 ± 2.13 ^b %

Molecule: COc1ccc2cc(C(=O)NCCCCCCCNc3c4c(nc5ccccc35)C3(C)CCC4C3(C)C)c(=O)oc2c1 (centres unmarked) [Compound 9f, 7-methoxy-2-oxo-N-(7-((4,11,11-trimethyl-1,2,3,4-tetrahydro-1,4-methanoacridin-9-yl)amino)heptyl)-2H-chromene-3-carboxamide]
- Inhibition Ratio (%) [1]: 56.11 ± 2.60 ^g %

Molecule: CC12CCC(c3c1nc1ccccc1c3NCCCCCNC(=O)c1cc3cc(OC(F)(F)F)ccc3oc1=O)C2(C)C (centres unmarked) [Compound 7d, 2-oxo-6-(trifluoromethoxy)-N-(5-((4,11,11-trimethyl-1,2,3,4-tetrahydro-1,4-methanoacridin-9-yl)amino)pentyl)-2H-chromene-3-carboxamide]
- Inhibition Ratio (%) [1]: 47.51 ± 2.65 ^hi %

Molecule: COc1cc2cc(C(=O)NCCCCCCNc3c4c(nc5ccccc35)C3(C)CCC4C3(C)C)c(=O)oc2cc1OC (centres unmarked) [Compound 8g, 6,7-dimethoxy-2-oxo-N-(6-((4,11,11-trimethyl-1,2,3,4-tetrahydro-1,4-methanoacridin-9-yl)amino)hexyl)-2H-chromene-3-carboxamide]
- Inhibition Ratio (%) [1]: 62.74 ± 0.27 ^e %

Molecule: COc1cc2cc(C(=O)NCCCCCNc3c4c(nc5ccccc35)C3(C)CCC4C3(C)C)c(=O)oc2cc1OC (centres unmarked) [Compound 7g, 6,7-dimethoxy-2-oxo-N-(5-((4,11,11-trimethyl-1,2,3,4-tetrahydro-1,4-methanoacridin-9-yl)amino)pentyl)-2H-chromene-3-carboxamide]
- Ki [2]: 153 nM
- Inhibition Ratio (%) [1]: 84.75 ± 1.27 ^bc %

Molecule: COc1ccc2oc(=O)c(C(=O)NCCCCCNc3c4c(nc5ccccc35)C3(C)CCC4C3(C)C)cc2c1 (centres unmarked) [Compound 7e, 6-methoxy-2-oxo-N-(5-((4,11,11-trimethyl-1,2,3,4-tetrahydro-1,4-methanoacridin-9-yl)amino)pentyl)-2H-chromene-3-carboxamide]
- Ki [2]: 65.1 nM
- Inhibition Ratio (%) [1]: 86.68 ± 2.18 ^b %

Molecule: 2-oxo-7-(trifluoromethoxy)-N-(6-((4,11,11-trimethyl-1,2,3,4-tetrahydro-1,4-methanoacridin-9-yl)amino)hexyl)-2H-chromene-3-carboxamide [Compound 8d]
- Inhibition Ratio (%) [1]: 62.92 ± 3.32 ^e %

Molecule: Cc1ccc2oc(=O)c(C(=O)NCCCCCNc3c4c(nc5ccccc35)C3(C)CCC4C3(C)C)cc2c1 (centres unmarked) [Compound 7b, 6-methyl-2-oxo-N-(5-((4,11,11-trimethyl-1,2,3,4-tetrahydro-1,4-methanoacridin-9-yl)amino)pentyl)-2H-chromene-3-carboxamide]
- Ki [2]: 190 nM
- Inhibition Ratio (%) [1]: 85.71 ± 1.66 ^bc %

Molecule: Cc1ccc2oc(=O)c(C(=O)NCCCCCCCNc3c4c(nc5ccccc35)C3(C)CCC4C3(C)C)cc2c1 (centres unmarked) [Compound 9b, 6-methyl-2-oxo-N-(7-((4,11,11-trimethyl-1,2,3,4-tetrahydro-1,4-methanoacridin-9-yl)amino)heptyl)-2H-chromene-3-carboxamide]
- Inhibition Ratio (%) [1]: 61.56 ± 4.65 ^ef %

Molecule: CC12CCC(c3c1nc1ccccc1c3NCCCCCNC(=O)c1cc3ccccc3oc1=O)C2(C)C (centres unmarked) [Compound 7a, 2-oxo-N-(5-((4,11,11-trimethyl-1,2,3,4-tetrahydro-1,4-methanoacridin-9-yl)amino)pentyl)-2H-chromene-3-carboxamide]
- Inhibition Ratio (%) [1]: 71.11 ± 0.94 ^d %

Molecule: CC12CCC(c3c1nc1ccccc1c3NCCCCCCCNC(=O)c1cc3cc(Br)ccc3oc1=O)C2(C)C (centres unmarked) [Compound 9c, 6-bromo-2-oxo-N-(7-((4,11,11-trimethyl-1,2,3,4-tetrahydro-1,4-methanoacridin-9-yl)amino)heptyl)-2H-chromene-3-carboxamide]
- Inhibition Ratio (%) [1]: 44.05 ± 2.74 ^ij %

Molecule: COc1cc2cc(C(=O)NCCCCCCCNc3c4c(nc5ccccc35)C3(C)CCC4C3(C)C)c(=O)oc2cc1OC (centres unmarked) [Compound 9g, 6,7-dimethoxy-2-oxo-N-(7-((4,11,11-trimethyl-1,2,3,4-tetrahydro-1,4-methanoacridin-9-yl)amino)heptyl)-2H-chromene-3-carboxamide]
- Inhibition Ratio (%) [1]: 35.49 ± 3.86 ^k %

Molecule: CC12CCC(c3c1nc1ccccc1c3NCCCCCCCNC(=O)c1cc3ccccc3oc1=O)C2(C)C (centres unmarked) [Compound 9a, 2-oxo-N-(7-((4,11,11-trimethyl-1,2,3,4-tetrahydro-1,4-methanoacridin-9-yl)amino)heptyl)-2H-chromene-3-carboxamide]
- Inhibition Ratio (%) [1]: 40.65 ± 4.28 ^j %

Molecule: COc1ccc2cc(C(=O)NCCCCCCNc3c4c(nc5ccccc35)C3(C)CCC4C3(C)C)c(=O)oc2c1 (centres unmarked) [Compound 8f, 7-methoxy-2-oxo-N-(6-((4,11,11-trimethyl-1,2,3,4-tetrahydro-1,4-methanoacridin-9-yl)amino)hexyl)-2H-chromene-3-carboxamide]
- Inhibition Ratio (%) [1]: 62.44 ± 1.63 ^e %

Molecule: CC12CCC(c3c1nc1ccccc1c3NCCCCCCCNC(=O)c1cc3cc(OC(F)(F)F)ccc3oc1=O)C2(C)C (centres unmarked) [Compound 9d, 2-oxo-6-(trifluoromethoxy)-N-(7-((4,11,11-trimethyl-1,2,3,4-tetrahydro-1,4-methanoacridin-9-yl)amino)heptyl)-2H-chromene-3-carboxamide]
- Inhibition Ratio (%) [1]: 40.35 ± 2.45 ^j %

Molecule: COc1ccc2cc(C(=O)NCCCCCNc3c4c(nc5ccccc35)C3(C)CCC4C3(C)C)c(=O)oc2c1 (centres unmarked) [Compound 7f, 7-methoxy-2-oxo-N-(5-((4,11,11-trimethyl-1,2,3,4-tetrahydro-1,4-methanoacridin-9-yl)amino)pentyl)-2H-chromene-3-carboxamide]
- Ki [2]: 118 nM
- Inhibition Ratio (%) [1]: 81.70 ± 4.82 ^c %
